Entries after “also recorded” stand apart in the source; their conditions may differ.
Columns and labels:
Type in all cases: cell-based, human
iPSC-RPE [1] = experiment: Phenotypic characterization of selected drug treatments (TER, brightfield, H&E, TEM, SEM); conditions: for induced RPE phenotype: cell size and apical processes; for effect on iPSC-RPE health: verified by TER, brightfield, H&E and TEM
Text: Eleven compounds were selected for further phenotypic characterization based on their initial effect in RPE cell size. […] Because the macula is dominated by cones while the periphery is dominated by rods, RPE cells in these two different regions might be enriched in one of the two apical process structures. It was hypothesized that the phenotype of RPE apical processes will serve as an additional discriminatory factor, other than RPE morphometry.
Different techniques were used to study RPE morphologic features.
Starting at D21, iPSC-RPE were treated with the different compounds. At D40 immature RPE were enriched by negative selection, as per differentiation protocol, and seeded on transwells for maturation. iPSC-RPE were treated with the compounds for other 6 weeks until cells were fully mature (FIG. 1 and FIG. 11).

iPSC-RPE [2] = experiment: High-content compound screening on iPSC-RPE, cell area quantified with REShAPE; conditions: 384-well plates, 30 days in RPE maturation medium
Protocol: Screening of Compound Library and Imaging: 115 drugs targeting various developmental pathways or cytoskeletal stressors were selected to form a new developmental library of compounds. The drugs are either activators or inhibitors of various signaling pathways and target proteins at different levels of the signaling cascades. For each drug, an initial concentration was selected, and adjustments made to the concentration of each drug. The assays were performed on iPSC-derived committed RPE. For every drug, the concentration was lowered if toxicity was detected or increased if there was no evident effect on cell morphology in comparison to control. The list of compounds tested can be found in Table 1. The high-content screening was performed in 384-well plates (cat #6057300, Perkin Elmer) using a range of 3 different concentrations (3×, 1×, 0.3×). […]
Morphometric Analysis Using REShAPE: The binary segmentation produced by the CNN algorithm was transferred to REShAPE for cell shape analysis. […] For every cell in a field of view that has been successfully segmented, REShAPE provide quantification of more than 25 different shape metrics. […] In addition, the software created images of segmented cells for every metric analyzed, where every cell is color-coded according to the raw values (FIG. 4). The color-coded images display the location of the cells analyzed. […]

iPSC-RPE [3] = experiment: Shape metrics (cell area) of drug-treated fully mature iPSC-RPE on transwells; conditions: treated from D21 until fully mature; for iPSC-RPE area: transwells; for iPSC-RPE cell size compared with human RPE populations: reference P1 macular, P3 peripheral
Text: Segmentation Using Convolutional Network: A Convolutional Neural Network (CNN) algorithm was used to recognize RPE cell borders from images of samples labeled by immunofluorescence. The algorithm generates a binary mask of segmented RPE borders; and this output was manually corrected to provide the “right answer” on which the algorithm would learn. Once trained, the CNN algorithm was fed with images of fluorescently labeled RPE cells and the binary mask images that were generated become the input for the REShAPE software for cell shape analysis (FIG. 3).
Morphometric Analysis Using REShAPE: The binary segmentation produced by the CNN algorithm was transferred to REShAPE for cell shape analysis. REShAPE (Retinal Epithelium Shape and Pigment Evaluator) is a Fiji plugin for image analysis. For every cell in a field of view that has been successfully segmented, REShAPE provide quantification of more than 25 different shape metrics. The raw data was stored in a spreadsheet to allow for statistical analysis. In addition, the software created images of segmented cells for every metric analyzed, where every cell is color-coded according to the raw values (FIG. 4). The color-coded images display the location of the cells analyzed. The shape metrics were analyzed with the software to give measurements of cell dimensions, such as area and perimeter, measurements of elongation, such as length of major and minor axis, and measurements of cell regularity, such as hexagonality score and number of neighbors. The analysis was performed in pixel units or μm, as far as the pixel to μm conversion is provided. The analysis of data and the graphs have been done using R software (“R Core Team (2018). R: A language and environment for statistical computing. R Foundation for Statistical Computing, Vienna, Austria. URL https://www.R-project.org/”). The R packages “plyr” and “ggplot2” have been use for data handling and plotting respectively (Wickham, 2009, 2011). The Dunnett's test, a method for post hoc pairwise multiple comparisons, was used to compute statistical analysis by comparing several treatment groups to control groups. A 95% family-wise confidence level has been used. […] Shapiro-Wilk's test and one-way ANOVA were carried out using the R package “dplyr” (Wickham et al., dplyr: A Grammar of Data Manipulation. Retrieved from https://cran.r-project.org/package=dplyr, 2019), while Q-Q plots were drawn using the R package “ggpubr” (Kassambara, ggpubr: “ggplot2” Based Publication Ready Plots. Retrieved from cran.r-project.org/package=ggpubr, 2020). […]
Subsequently, shape metrics were analyzed to confirm the effect of the drugs on cell areas. […]

Structure (SMILES) | induced RPE phenotype (iPSC-RPE [1]) | effect on iPSC-RPE health (iPSC-RPE [1]) | effect on iPSC-RPE cell area / cell size distribution in the screening (iPSC-RPE [2]) | iPSC-RPE area (iPSC-RPE [3]) [μm^2] | iPSC-RPE cell size compared with human RPE populations (iPSC-RPE [3])
Cc1ccc(C2=CCC(C)(C)c3ccc(C#Cc4ccc(C(=O)O)cc4)cc32)cc1 [AGN 193109, 4-[2-[5,6-Dihydro-5,5-dimethyl-8-(4-methylphenyl)-2-naphthalenyl]ethynyl]-benzoic acid] | induces a macular RPE phenotype | not disruptive of iPSC-RPE health; also recorded: did not affect the healthy RPE phenotype | reproduces macular and peripheral cell sizes in vitro, respectively | 161.8±149.7 | comparable to the dimension of macular RPE population (P1); also recorded: shifts iPSC-RPE cell sizes toward macular RPE population (P1); also recorded: able to reproduce the cellular size of macular population (P1) and peripheral population (P3) respectively
O=C(Nc1cccc2cccnc12)c1ccc(N2C(=O)C3C4C=CC(C4)C3C2=O)cc1 (stereo not drawn) [ENDO-1-IWR, 4-(1,3,3a,4,7,7a-Hexahydro-1,3-dioxo-4,7-methano-2H-isoindol-2-yl)-N-8-quinolinyl-Benzamide] | induces a peripheral RPE phenotype | not disruptive of iPSC-RPE health; also recorded: did not affect the healthy RPE phenotype | reproduces macular and peripheral cell sizes in vitro, respectively | 251.8±218.4 | comparable to cells of peripheral RPE population P3; also recorded: increases cell sizes up to the dimensions of the peripheral RPE population P3; also recorded: able to reproduce the cellular size of macular population (P1) and peripheral population (P3) respectively; also recorded: increases RPE cell size to match human peripheral RPE population P3

Source: patent publication US20240261474A1, “BIODEGRADABLE TISSUE SCAFFOLD WITH SECONDARY MATRIX TO HOST WEAKLY ADHERENT CELLS” (THE U.S.A., as represented by the Secretary, Department of …, priority 2021, published 2024)
